Test [1] addresses T1, Mps1 kinase domain (Homo sapiens, UniProt P33981, C604W).
T1 sequence (P33981 519-808 C604W): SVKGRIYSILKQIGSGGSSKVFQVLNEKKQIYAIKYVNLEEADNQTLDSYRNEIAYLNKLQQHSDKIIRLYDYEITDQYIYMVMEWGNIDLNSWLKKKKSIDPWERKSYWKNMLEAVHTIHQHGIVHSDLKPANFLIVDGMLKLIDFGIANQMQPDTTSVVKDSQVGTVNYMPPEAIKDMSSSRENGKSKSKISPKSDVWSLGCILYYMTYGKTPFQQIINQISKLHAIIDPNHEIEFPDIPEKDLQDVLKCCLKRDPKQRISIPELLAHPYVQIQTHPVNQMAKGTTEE
The experiment in a line: microscale thermophoresis, DY-547P1 labelled protein. The class given is binding.

The target of test [2] is T2, GST-Mps1 full length (Homo sapiens, UniProt P33981, C604Y).
T2 sequence (P33981 1-857 C604Y): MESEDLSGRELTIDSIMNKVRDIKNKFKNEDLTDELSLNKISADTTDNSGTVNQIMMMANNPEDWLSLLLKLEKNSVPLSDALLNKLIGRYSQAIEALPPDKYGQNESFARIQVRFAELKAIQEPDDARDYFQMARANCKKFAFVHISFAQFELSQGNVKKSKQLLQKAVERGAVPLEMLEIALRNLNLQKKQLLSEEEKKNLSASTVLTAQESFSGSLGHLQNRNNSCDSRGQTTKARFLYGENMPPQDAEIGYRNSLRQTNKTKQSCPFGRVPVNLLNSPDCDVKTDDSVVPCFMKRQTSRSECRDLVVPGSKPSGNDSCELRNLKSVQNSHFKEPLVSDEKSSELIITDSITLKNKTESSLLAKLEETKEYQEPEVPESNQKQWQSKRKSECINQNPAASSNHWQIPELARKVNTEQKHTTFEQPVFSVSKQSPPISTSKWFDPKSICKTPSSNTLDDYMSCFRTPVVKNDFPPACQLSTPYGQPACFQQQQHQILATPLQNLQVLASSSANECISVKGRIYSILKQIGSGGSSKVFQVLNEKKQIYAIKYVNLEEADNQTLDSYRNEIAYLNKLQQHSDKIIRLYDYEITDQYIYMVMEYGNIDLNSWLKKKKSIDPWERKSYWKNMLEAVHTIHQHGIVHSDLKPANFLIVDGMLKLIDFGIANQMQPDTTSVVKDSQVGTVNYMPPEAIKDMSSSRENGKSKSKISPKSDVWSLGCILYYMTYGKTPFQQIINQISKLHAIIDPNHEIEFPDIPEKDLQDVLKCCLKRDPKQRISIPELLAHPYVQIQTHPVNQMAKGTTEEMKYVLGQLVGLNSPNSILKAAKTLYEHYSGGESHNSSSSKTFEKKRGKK
The experiment in a line: biochemical.

Test [3] deals with T3, GST-Mps1 full length (Homo sapiens, UniProt P33981).
T3 sequence (P33981 1-857): T2 sequence (P33981 1-857 C604Y) with Y604C
The experiment in a line: biochemical.

In test [4] the target is T4, Mps1 kinase domain (Homo sapiens, UniProt P33981).
T4 sequence (P33981 519-808): T1 sequence (P33981 519-808 C604W) with W86C
Briefly: microscale thermophoresis, DY-547P1 labelled protein. The class given is binding.

The target in test [5] is T5, GST-Mps1 full length (Homo sapiens, UniProt P33981, C604W).
T5 sequence (P33981 1-857 C604W): T2 sequence (P33981 1-857 C604Y) with Y604W
The experiment in a line: biochemical.

For test [6], the target named is T6, Mps1 kinase domain (Homo sapiens, UniProt P33981, C604Y).
T6 sequence (P33981 519-808 C604Y): T1 sequence (P33981 519-808 C604W) with W86Y
Briefly: microscale thermophoresis, DY-547P1 labelled protein. The class given is binding. (Microscale thermophoresis detects binding through changes in fluorescence in a small temperature gradient.)

SMILES strings stand for the structures. Residue numbers refer to the chain shown, from its start.

The record followed here is article doi:10.1101/112086v2 (biorxiv, 2017).

In general, Kd refers to a measure of binding affinity in units of concentration. A higher Kd goes with lower affinity. One may read the IC50 as the concentration that gives 50% inhibition. A high value points to weaker potency in that assay. With `CCc1cccc(CC)c1NC(=O)c1nn(C)c2c1CCc1cnc(Nc3ccc(N4CCN(C)CC4)cc3OC)nc1-2` [Cpd-5, N-(2,6-diethylphenyl)-8-((2-methoxy-4-(4-methylpiperazin-1-yl)phenyl)amino)-1-methyl-4,5-dihydro-1H-pyrazolo[4,3-h]quinazoline-3-carboxamide], the Kd is 349 ± 81 nM at Mps1 kinase domain [1], 1.6 ± 0.2 nM at Mps1 kinase domain [4] and 471 ± 50 nM at Mps1 kinase domain [6]. Besides, the values for the IC50 against GST-Mps1 full length [2], against GST-Mps1 full length [3] and on GST-Mps1 full length [5] were 170 ± 30 nM, 9.2 ± 1.6 nM and 19 ± 1 nM, respectively.
